Results reported in patent publication US11136324B2, “Substituted imidazoles as apoptosis signal regulating kinase 1 inhibitors” (Jiangsu Hansoh Pharmaceutical Group Co., Ltd., priority 2017, dated 2021).

What was measured:
[1] = tested on: non-alcoholic steatohepatitis mice induced by HFD (high fat diet)+CCl4; test: Effect on serum ALT and AST levels of non-alcoholic steatohepatitis mice induced by HFD+CCl4; format: in vivo, C57BL/6 mice; design: concentration or dose not given beside the values; conditions: oral once a day for 28 days, versus solvent control group
Description: 3. The effect of the compounds of the present invention on the ALT and AST levels of non-alcoholic steatohepatitis mice induced by HFD (high fat diet)+CCl4
The object of this test example is to determine whether the compounds of the present invention can down-regulate the ALT and AST levels in the serum of non-alcoholic steatohepatitis mice or not.
C57BL/6 mice were adaptively fed in a SPF (specific pathogen free) barrier for 3 to 7 days, and then fed with HFD feed with a feeding cycle of 8 weeks. At the fifth week of HFD feeding, the HFD-induced mice were randomly grouped according to body weight, and orally administrated with CCl4 twice a week for 4 weeks. At the day of modeling with CCl4, the test compounds were orally administrated once a day continuously for 28 days. The solvent control group was administrated with the corresponding solvent of the test compounds with an administration volume of 10 mL/kg. The mice were euthanized with CO2 48 hours after the last administration of CCl4, and the non-anticoagulated venous blood was collected from the heart. The whole blood was left to stand at room temperature for at least 30 minutes, and then centrifuged for 5 minutes at 4° C. at 5000 rpm to separate the serum. The serum was dispensed into two portions in 1.5 mL EP tubes, and stored at −80° C. for later use.
The ALT and AST levels in mice serum were determined using the alanine aminotransfease (ALT/GPT) kit and aspartate aminotransferase (AST/GOT) kit. The ALT (or AST) test substrate solution was preheated in a 37° C. incubator; 20 μL of substrate solution were pipetted into a 96-well plate, and 5 μL of serum were pipetted into the 96-well plate as test well. After mixing well, the plate was sealed using a sealing film, and placed into the 37° C. incubator to incubate for 30 min. The ALT (or AST) standard curve was formulated, and 25 μL of which were pipetted into the 96-well plate; 20 μL of […] were pipetted into the 96-well plate as control well; 20 μL of 2,4-dinitrophenylhydrazine solution were added to each well. After mixing well, the plate was sealed using a sealing film, and placed into the 37° C. incubator to incubate for 20 min. 200 μL of 0.4 M NaOH solution were added to each well. The plate was placed on a shaker to shake for 15 min, and then measured on the BioTek Synergy H1 instrument using OD detection program at a wavelength of 510 nm. The absolute OD value was calculated from the OD value of each well. Absolute OD value=OD value of measured well−OD value of control well. The absolute OD value was taken into the standard curve to obtain the ALT (or AST) content of the sample. Samples that exceed the standard curve range should be re-tested after diluting the serum to an appropriate concentration. Data processing: (% ALT reduction rate)=(solvent control group−test compound)/solvent control group×100%; (% AST reduction rate)=(solvent control group−test compound)/solvent control group×100%.

[2] = molecular target: ASK1 kinase (Homo sapiens (Human), UniProt Q99683); test: ASK1 enzymatic test (TR-FRET); format: biochemical; conditions: ASK1 kinase activity
ASK1 kinase, sequence (Q99683 whole entry): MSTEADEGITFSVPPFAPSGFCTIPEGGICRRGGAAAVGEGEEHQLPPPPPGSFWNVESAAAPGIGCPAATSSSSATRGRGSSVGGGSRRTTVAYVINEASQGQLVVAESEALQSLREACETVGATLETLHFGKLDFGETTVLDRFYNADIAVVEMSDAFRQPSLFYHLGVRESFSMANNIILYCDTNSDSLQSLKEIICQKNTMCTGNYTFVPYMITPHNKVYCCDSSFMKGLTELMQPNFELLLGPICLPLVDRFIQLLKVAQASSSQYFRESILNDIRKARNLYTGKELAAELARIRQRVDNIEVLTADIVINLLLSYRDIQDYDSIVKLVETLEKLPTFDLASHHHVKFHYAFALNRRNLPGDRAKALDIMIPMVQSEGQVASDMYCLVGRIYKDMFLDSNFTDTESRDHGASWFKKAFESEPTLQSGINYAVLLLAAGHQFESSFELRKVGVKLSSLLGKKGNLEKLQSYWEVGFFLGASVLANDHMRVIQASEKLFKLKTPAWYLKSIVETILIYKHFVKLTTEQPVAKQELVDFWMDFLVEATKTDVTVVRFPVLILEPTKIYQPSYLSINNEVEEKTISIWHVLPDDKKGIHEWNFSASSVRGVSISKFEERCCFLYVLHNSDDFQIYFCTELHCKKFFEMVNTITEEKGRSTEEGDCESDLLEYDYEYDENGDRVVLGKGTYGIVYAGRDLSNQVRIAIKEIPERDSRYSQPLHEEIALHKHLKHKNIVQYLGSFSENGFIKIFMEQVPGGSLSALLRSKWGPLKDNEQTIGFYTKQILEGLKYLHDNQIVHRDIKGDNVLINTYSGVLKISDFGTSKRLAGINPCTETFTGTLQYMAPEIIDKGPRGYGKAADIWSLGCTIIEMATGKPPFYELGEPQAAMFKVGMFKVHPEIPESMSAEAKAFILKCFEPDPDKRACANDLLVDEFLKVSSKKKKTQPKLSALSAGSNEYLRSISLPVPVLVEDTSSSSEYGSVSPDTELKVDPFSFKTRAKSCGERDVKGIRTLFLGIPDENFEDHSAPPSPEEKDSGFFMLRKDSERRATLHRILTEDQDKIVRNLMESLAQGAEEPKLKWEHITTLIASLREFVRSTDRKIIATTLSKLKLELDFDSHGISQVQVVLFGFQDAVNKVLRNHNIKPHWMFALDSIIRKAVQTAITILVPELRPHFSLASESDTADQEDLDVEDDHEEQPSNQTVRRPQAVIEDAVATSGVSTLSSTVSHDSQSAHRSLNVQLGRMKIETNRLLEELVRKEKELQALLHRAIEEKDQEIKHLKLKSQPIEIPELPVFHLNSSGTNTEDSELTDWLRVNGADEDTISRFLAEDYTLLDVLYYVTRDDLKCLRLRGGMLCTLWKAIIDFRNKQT
Description: In this test, the fluorescence-resonance energy transfer (TR-FRET) method was used to determine the inhibition effect of the test compounds on ASK1 kinase activity, and the half maximal inhibitory concentration IC50 of the compounds on ASK1 kinase activity was obtained.
1) 1˜5 μL of ASK1 enzyme solution was added to a 384-well plate, and the final concentration of the enzyme was 0.220 nM.
2) 1˜5 μL of gradient-diluted compound solution was added.
3) 1˜5 μL of a substrate mixture containing substrate polypeptides (final concentration: 100˜5000 nM) and ATP (final concentration: 100˜1000 uM) were added.
4) The mixture was incubated at room temperature for 0.5 to 5 hours.
5) 10 μL of EDTA and test solution containing labeled antibody were added, and the plate was incubated at room temperature for 2 to 24 hours.
6) The fluorescence signal value of each well was determined by a microplate reader at about 615 nm and 665 nm.
7) The inhibition rate was calculated by the fluorescence signal value.
8) The IC50 of the compound was obtained by curve fitting according to the inhibition rate at different concentrations.

[3] = Pharmacokinetic (PK) assay in mice; format: in vivo; conditions: Balb/c male mice, single intragastric administration, 5 mg/kg, plasma; for AUC(0-t) / AUC(0-inf) / half-life / MRT / Cmax: mouse, po; for AUC(0-t): read-out: Area under curve AUC0-t; for AUC(0-inf): read-out: Area under curve AUC0-∞; for half-life: read-out: Half-life t1/2 (converted); for MRT: read-out: Mean residence time MRT; for Cmax: read-out: Plasma concentration Cmax
Description: 2. Pharmacokinetic (PK) Assay in Mice
The pharmacokinetic test of the preferred examples of the present invention in mice was carried out in Balb/c male mice (Shanghai Jiesijie Laboratory Animal Co., LTD).
Administration mode: single intragastric administration.
Administration dosage: 5 mg/10 ml/kg.
Formulation: 0.5% CMC-Na, ultrasonic dissolution.
Sampling points: 0.5, 1, 2, 4, 6, 8 and 24 hours after administration.
1) 0.1 mL of blood was taken from the orbit, placed in a K2EDTA tube, and centrifuged for 5˜20 min at room temperature at 1000˜3000×g to separate the plasma, which was then stored at −80° C.
2) 160 μL of acetonitrile was added to 40 μL of plasma sample for precipitation, and then the mixture was centrifuged for 5˜20 minutes at 500˜2000×g.
3) 100 μL, of processed supernatant was taken and analyzed by LC/MS/MS assay to determine the concentration of the test compound.
LC-MS/MS Assay: • Liquid chromatography condition: Shimadzu LC-20AD pump • Mass spectrometry condition: AB Sciex API 4000 mass spectrometer • Chromatographic column: phenomenex Gemiu 5 μm C18 50×4.6 mm • Mobile phase: solution A was 0.1% aqueous formic acid solution, and solution B was acetonitrile • Flow rate: 0.8 mL/min • Elution time: 0-3.5 minutes gradient elution
The main parameters were calculated using WinNonlin 6.1.

Question: For `Cc1cc2c(cc1-n1cnc(C3CC3)c1)C(=O)N(c1cccc(-c3nnc4n3[C@H](C(F)(F)F)CC4)n1)C2` [Example 65, (S)-6-(4-Cyclopropyl-1H-imidazol-1-yl)-5-methyl-2-(6-(5-(trifluoromethyl)-6,7-dihydro-5H-pyrrolo[2,1-c][1,2,4]triazol-3-yl)pyridin-2-yl)isoindolin-1-one], which “ALT(U/L) reduction rate (%)” value [1] is on record?
Answer: 46%

Question: What about the “AST(U/L) reduction rate (%)” value [1] of the same molecule?
Answer: 52%

Question: What about the IC50 [2] of the same molecule?
Answer: 9.4 nM

Question: Which Peak time tmax [3] does the source give for `C=C[C@@H]1CCc2nnc(-c3cccc(NC(=O)c4cc(-n5cnc(C6CC6)c5)c(C)cc4F)n3)n21` [Example 37, (S)-5-(4-Cyclopropyl-1H-imidazol-1-yl)-2-fluoro-4-methyl-N-(6-(5-vinyl-6,7-dihydro-5H-pyrrolo[2,1-c][1,2,4]triazol-3-yl)pyridin-2-yl)benzamide] here?
Answer: 0.5 h

Question: What about the AUC(0-t) [3] of the same molecule?
Answer: 43900 ng·h/mL

Question: And the AUC(0-inf) [3]?
Answer: 48000 ng·h/mL

Question: What about the half-life [3] of the same molecule?
Answer: 2.1 h

Question: What about the MRT [3] of the same molecule?
Answer: 3.4 h

Question: What about the Cmax [3] of the same molecule?
Answer: 11700 ng/mL

Question: And the “ALT(U/L) reduction rate (%)” value [1]?
Answer: 57%

Question: And the “AST(U/L) reduction rate (%)” value [1]?
Answer: 62%

Question: And the IC50 [2]?
Answer: 3.5 nM

Question: With `Cc1cc(F)c(C(=O)Nc2cccc(-c3nnc4n3[C@H](C(F)(F)F)CC4)n2)cc1-n1cnc(C2CC2)c1` [Example 40, (S)-5-(4-Cyclopropyl-1H-imidazol-1-yl)-2-fluoro-4-methyl-N-(6-(5-(trifluoromethyl)-6,7-dihydro-5H-pyrrolo[2,1-c][1,2,4]triazol-3-yl)pyridin-2-yl)benzamide] as the molecule, how does the Peak time tmax [3] read?
Answer: 0.5 h

Question: And the AUC(0-t) [3]?
Answer: 26800 ng·h/mL

Question: What about the AUC(0-inf) [3] of the same molecule?
Answer: 28300 ng·h/mL

Question: And the half-life [3]?
Answer: 1.7 h

Question: What about the MRT [3] of the same molecule?
Answer: 2.7 h

Question: And the Cmax [3]?
Answer: 10700 ng/mL

Question: And the “ALT(U/L) reduction rate (%)” value [1]?
Answer: 50%

Question: And the “AST(U/L) reduction rate (%)” value [1]?
Answer: 65%

Question: What about the IC50 [2] of the same molecule?
Answer: 1.9 nM

Question: What does the source list for `CC[C@@H]1CCc2nnc(-c3cccc(NC(=O)c4cc(-n5cnc(C6CC6)c5)c(C)cc4F)n3)n21` [Example 55, (R)-5-(4-Cyclopropyl-1H-imidazol-1-yl)-N-(6-(5-ethyl-6,7-dihydro-5H-pyrrolo[2,1-c][1,2,4]triazol-3-yl)pyridin-2-yl)-2-fluoro-4-methylbenzamide]?
Answer: Peak time tmax [3]: 0.5 h; AUC(0-t) [3]: 31500 ng·h/mL; AUC(0-inf) [3]: 31500 ng·h/mL; half-life [3]: 1.4 h; MRT [3]: 2.9 h; Cmax [3]: 9330 ng/mL; ALT(U/L) reduction rate (%) [1]: 56%; AST(U/L) reduction rate (%) [1]: 55%; IC50 [2]: 1.9 nM

Question: Which results are given for `Cc1cc(F)c(C(=O)Nc2cccc(-c3nncn3C(C)C)n2)cc1-n1cnc(C2CC2)c1` [GS-4997, reference compound]?
Answer: ALT(U/L) reduction rate (%) [1]: 40%; AST(U/L) reduction rate (%) [1]: 35%

Question: Which results are given for `C#C[C@@H]1CCc2nnc(-c3cccc(NC(=O)c4cc(-n5cnc(C6CC6)c5)c(C)cc4F)n3)n21` [Example 43, (S)-5-(4-Cyclopropyl-1H-imidazol-1-yl)-N-(6-(5-ethynyl-6,7-dihydro-5H-pyrrolo[2,1-c][1,2,4]triazol-3-yl)pyridin-2-yl)-2-fluoro-4-methylbenzamide]?
Answer: Peak time tmax [3]: 0.5 h; AUC(0-t) [3]: 80900 ng·h/mL; AUC(0-inf) [3]: 81900 ng·h/mL; half-life [3]: 3.9 h; MRT [3]: 5.3 h; Cmax [3]: 12200 ng/mL; ALT(U/L) reduction rate (%) [1]: 65%; AST(U/L) reduction rate (%) [1]: 58%; IC50 [2]: 1.9 nM

Question: Which Peak time tmax [3] does the source give for `Cc1cc(F)c(C(=O)Nc2cccc(-c3nnc4n3C3(CC4)CC3)n2)cc1-n1cnc(C2CC2)c1` [Example 61, 5-(4-Cyclopropyl-1H-imidazol-1-yl)-N-(6-(6′,7′-dihydrospiro[cyclopropane-1,5′-pyrrolo[2,1-c][1,2,4]triazol]-3′-yl)pyridin-2-yl)-2-fluoro-4-methylbenzamide] here?
Answer: 1 h

Question: What about the AUC(0-t) [3] of the same molecule?
Answer: 68600 ng·h/mL

Question: What about the AUC(0-inf) [3] of the same molecule?
Answer: 68800 ng·h/mL

Question: What about the half-life [3] of the same molecule?
Answer: 2.7 h

Question: And the MRT [3]?
Answer: 4.5 h

Question: And the Cmax [3]?
Answer: 11400 ng/mL

Question: And the “ALT(U/L) reduction rate (%)” value [1]?
Answer: 50%

Question: And the “AST(U/L) reduction rate (%)” value [1]?
Answer: 54%

Question: And the IC50 [2]?
Answer: 1.9 nM

Question: For `Cc1cc2c(cc1-n1cnc(C3CC3)c1)C(=O)N(c1cccc(-c3nnc4n3C3(CC4)CC3)n1)C2` [Example 64, 6-(4-Cyclopropyl-1H-imidazol-1-yl)-2-(6-(6′,7′-dihydrospiro[cyclopropane-1,5′-pyrrolo[2,1-c][1,2,4]triazol]-3′-yl)pyridin-2-yl)-5-methylisoindolin-1-one], which “ALT(U/L) reduction rate (%)” value [1] is on record?
Answer: 51%

Question: And the “AST(U/L) reduction rate (%)” value [1]?
Answer: 47%

Question: What about the IC50 [2] of the same molecule?
Answer: 5.5 nM

Question: Which Peak time tmax [3] does the source give for `Cc1cc(F)c(C(=O)Nc2cccc(-c3nnc4n3C(C)(C)CC4)n2)cc1-n1cnc(C2CC2)c1` [Example 10, 5-(4-Cyclopropyl-1H-imidazol-1-yl)-N-(6-(5,5-dimethyl-6,7-dihydro-5H-pyrrolo[2,1-c][1,2,4]triazol-3-yl)pyridin-2-yl)-2-fluoro-4-methylbenzamide] here?
Answer: 0.5 h

Question: What about the AUC(0-t) [3] of the same molecule?
Answer: 32400 ng·h/mL

Question: And the AUC(0-inf) [3]?
Answer: 32400 ng·h/mL

Question: What about the half-life [3] of the same molecule?
Answer: 1.6 h

Question: What about the MRT [3] of the same molecule?
Answer: 3 h

Question: What about the Cmax [3] of the same molecule?
Answer: 8990 ng/mL

Question: What about the “ALT(U/L) reduction rate (%)” value [1] of the same molecule?
Answer: 50%

Question: What about the “AST(U/L) reduction rate (%)” value [1] of the same molecule?
Answer: 46%

Question: And the IC50 [2]?
Answer: 1 nM

Question: For `Cc1cc(F)c(C(=O)Nc2cccc(-c3nnc4n3[C@H](C)CC4)n2)cc1-n1cnc(C(C)(C)C)c1` [Example 15, (R)-5-(4-(tert-Butyl)-1H-imidazol-1-yl)-2-fluoro-4-methyl-N-(6-(5-methyl-6,7-dihydro-5H-pyrrolo[2,1-c][1,2,4]triazol-3-yl)pyridin-2-yl)benzamide], which “ALT(U/L) reduction rate (%)” value [1] is on record?
Answer: 54%

Question: What about the “AST(U/L) reduction rate (%)” value [1] of the same molecule?
Answer: 58%

Question: What about the IC50 [2] of the same molecule?
Answer: 1.4 nM
